Laboratory results: US6426366B1, “Pharmaceutical compositions comprising tyrphostins” (priority 1996, dated 2002)
Entries after “also recorded” stand apart in the source; their conditions may differ. Read-outs that look alike come from different tables or passages of the source.

Assays:
[1] = system: CD1 female mice; test: 5 FU myelotoxicity (bone marrow nucleated cells); assay type: in vivo; conditions: 5 FU 80 mg/kg i.p. alone; five days (FIG. 15)
Procedure: CD1 female mice were divided into the following groups:
A control group receiving a single i.p. injection of the vehicle only (co-solvent: propylene carbonate-cremophor-saline);
Mice receiving a single i.p. injection of 5-fluorouracil (5 FU) at a dose of 80 mg/kg;
Five days after the administration of 5 FU to the mice, the mice were sacrificed and the number of nucleated cells in the bone marrow of one femur, were counted. Each group of mice consisted of two or three mice and the results shown are the mean number of cells counted±SD.

[2] = system: A9 mouse fibroblastic cells; test: TNF-α-induced apoptosis and Go/G1 arrest (FACS, propidium iodide); assay type: cell-based
Procedure: In order to test the effect of tyrphostins on the TNF-α-induced apoptosis of the cells, A9 mouse fibroblastic cells were incubated for two hours with cycloheximide (50 μg/ml) after which the various tyrphostins were added at a final concentration of 20 μM except AG1801 that was added at the final concentration of 5 μM. Following one hour incubation with the tyrphostins, TNF-α was added to the cells at a concentration of 0.2 ng/ml and the cells were incubated for an additional ten hours.

[3] = system: A-9 cells; test: TNF-induced cytotoxicity in vitro; assay type: cell-based, mouse; conditions: AG (20 μM)
Procedure: Following one hour incubation with the tyrphostins, TNF-α was added to the cells at a concentration of 0.2 ng/ml and the cells were incubated for an additional ten hours. At the end of ten hours, the cell cultures were analyzed by FACS using propidium iodide and the extent of apoptosis in each of the cell cultures (seen as DNA fragmentation) was determined (see Novogrodsky, A., et al., Science, 264:1319-1322, 1994).
The effect of tyrphostins on TNF-induced cytotoxicity was determined in vitro using A-9 cells as described in Example 39 above.

[4] = system: CD1 mice; test: LPS-induced lethal toxicity in vivo; conditions: tyrphostin 20 mg/kg i.p. two hours prior to E. coli LPS […] i.p.
Procedure: In addition, the effect of tyrphostin on TNF mediated cytotoxicity in vivo was determined in mice injected with LPS (which induces TNF toxicity in vivo). E. coli LPS the concentration of 1.3 mg/mouse was injected i.p. to CD1 mice. While control mice were injected in addition with the vehicle only, the remaining mice were injected with the various tyrphostins (20 mg/kg) i.p. two hours prior to LPS injection.

[5] = system: CD1 mice; test: Cisplatin nephrotoxicity: serum creatinine and BUN; assay type: in vivo; conditions: tyrphostin 10 mg/kg i.p. 2 h before cisplatin 14 mg/kg i.p.; four days (FIG. 5)
Source text: Mice in the control croup received injections of the vehicle only (a stock solution of ethanol: chemaphore (50:50) diluted with saline). […] Each group consisted of three mice and the results are shown as mean levels of the measured parameter±SD.

[6] = system: CD1 mice; test: Reduction of cisplatin-caused mouse mortality; assay type: in vivo; conditions: cisplatin 14 mg/kg alone
Source text: (§1) 6 weeks old female CD1 mice were divided into the following groups:

[7] = system: CD1 mice; test: Histopathological analysis of kidneys and small intestines after cisplatin; assay type: in vivo
Procedure: Histopathological analysis of the kidneys and small intestines of the non-treated and treated mice was performed using slices from formaline fixed tissues stained with hematoxylin eosin.

[8] = system: MCA-105 fibrosarcoma; test: MCA-105 fibrosarcoma lung metastases in mice; assay type: in vivo; conditions: for weight of the lungs of tumor bearing mice: single agent: AG1801 5 mg/kg, cisplatin 10 mg/kg or doxorubicin 10 mg/kg, 4 days after inoculation (FIG. 25)
Procedure: (§2) 2×10^5/mouse MCA-105 fibrosarcoma cells or Lewis Lung carcinoma cells and 5×10^4/mouse B-16 melanoma cells were injected into the tail vein of C57BL mice.
(§3) Twenty-four days after tumor inoculation, mice were sacrificed, lungs weighed and the number of metastases were scored. Each group contained 5 mice and the results are expressed as the means lungs' weights±SE.
C57BL mice were divided into the following groups:
Mice injected i.v. at the age of 6 weeks with 2×10^5 fibrosarcoma MCA105 cells and 4 days' later, receiving an injection comprising the vehicle only;
Mice injected i.v. at the age of 6 weeks with 2×10^5 fibrosarcoma MCA105 cells and 4 days' later, injected with 10 mg/kg of doxorubicin;

[9] = system: Lewis Lung carcinoma cells; test: Lewis lung carcinoma lung metastases in mice; assay type: in vivo; conditions: agent by itself: cisplatin 4 mg/kg or AG1714 20 mg/kg (FIG. 21B)
Procedure: as §2, §3

[10] = system: SK-28 human melanoma; test: SK-28 human melanoma tumor xenografts in nude mice; assay type: in vivo
Procedure: CD1 athymic mice (nu/nu) were inoculated i.v. with 4×10^5/mouse SK-28 human melanoma. Doxorubicin (4 mg/kg) was injected i.p. 4 days after tumor inoculation.

[11] = system: human ovary carcinoma (OVCAR-3) cells; test: OVCAR-3 human ovary carcinoma tumor volume in athymic mice; assay type: in vivo; conditions: agent by itself: cisplatin 4 mg/kg or AG1714 20 mg/kg; twenty days (FIG. 23)
Procedure: Athymic mice were inoculated subcutaneously (s.c.) with human ovary carcinoma (OVCAR-3) cells (3×10^6 cells/site). […] Twenty days post tumor inoculation the short (S) and long (L) diameters of the tumor were measured and the tumor volume (V) was calculated according to the formula:
Each group contained 5 mice and the results are expressed as the means±SE.

[12] = system: B-16 melanoma
Procedure: Mice were injected i.v. with 2×10^5 B-16 melanoma cells and 4 days after tumor inoculation each mouse received a single i.p. injection of doxorubicin (4 mg/kg or 8 mg/kg).

[13] = system: CD1 mice
Source text: Each experimental group consisted of three mice and the results shown are the mean number of cells in a group±SD.

[14] = system: CD1 mice; test: Reduction of doxorubicin-caused mouse mortality; assay type: in vivo
Procedure: as §1
i. Mice injected intraperitoneally (i.p.) with doxorubicin (20 mg/kg);
CD1 mice were divided into the following five groups:
i. Mice receiving, a single i.p. injection of 20 mg/kg of doxorubicin;
iii. Mice receiving a single i.p. injection of 20 mg/kg of AG1782 and two hours later an i.p. injection of 20 mg/kg of doxorubicin;
iv. Mice receiving a single i.p. injection of 20 mg/kg of AG126 and two hours later an i.p. injection of 20 mg/kg of doxorubicin.
The % mortality in each of the above groups was determined by scoring the number of dead mice every day until 10 days after injection.

[15] = system: primary rat cardiomyocytes cultures; test: Doxorubicin-induced cardiotoxicity in vitro (cellular beating); assay type: cell-based; conditions: doxorubicin 10 μM alone; 24 hours
Procedure: The cardiomyocyte cultures were divided into the following, four groups receiving:
Cells receiving doxorubicin at a concentration of 10 μM; and
The rate of beats-of clusters of cardiomyocytes (“mini-hearts”) was determined 24 hours after beginning of incubation.

[16] = system: CD1 mice; test: Doxorubicin lymphotoxicity (weight of spleen and thymus); assay type: in vivo; conditions: doxorubicin 10 mg/kg i.p. alone; 72 hours
Procedure: 72 hours after doxorubicin administration the mice were sacrificed and the weight of the spleen and thymus of the mice was determined as parameters of lymphotoxicity. Each experimental group consisted of three mice and the results are mean no. of cells±SD. As control, the mice received an injection of the vehicle only instead of doxorubicin.

[17] = system: CD1 mice; test: Doxorubicin induced myelotoxicity (femur bone marrow nucleated cells, CFU); conditions: doxorubicin 10 mg/kg i.p. alone; 3 days (FIG. 12B)
Procedure: CD1 mice were divided into the following groups:
Mice receiving an i.p. injection of doxorubicin (10 mg/kg) alone;
Mice receiving one injection of the vehicle and two hours later an i.p. injection of doxorubicin (10 mg kg,).
3 days later, the number of bone marrow nucleated cells and colony forming units (CFU) in the femurs of the treated mice was determined (Nikerich, D. A., et al., J. Immunopharmacol., 8:299-313, 1986). Each group contained 3 mice and the results are expressed as a means±SD.
The number of femur nucleated bone marrow cells in the treated mice was determined three days (FIG. 13A) and at various times (FIG. 13B) post doxorubicini administration.
CD1 mice were divided into five groups:
Mice receiving the vehicle alone;
Mice receiving doxorubicin (10 mg/kg) alone;
Three days after doxorubicin administration, the mice were sacrificed and the number of nucleated cells in bone marrow was determined as described above.

[18] = Cyclophosphamide (50 mg/kg) alone (−), 72 hours
[19] = Table 6A, Doxorubicin (8 mg/kg) alone
[20] = Table 5A, Doxorubicin (4 mg/kg) alone
[21] = Table 5A, Doxorubicin (8 mg/kg) alone
[22] = Table 5B, Doxorubicin (4 mg/kg) alone
[23] = Table 5B, Doxorubicin (8 mg/kg) alone

With `O=c1[nH]cc(F)c(=O)[nH]1` [5 FU, 5-fluorouracil] the “number of nucleated cells in the bone marrow” value [1] was “decrease in the number of nucleated cells”.

`N#CC(C#N)=Cc1ccc([N+](=O)[O-])c(O)c1` [AG126] was tested, and the “Apoptosis (%)” value ([2]; TNF-α (0.2 ng/ml) +, ten hours, cycloheximide 50 μg/ml, tyrphostins 20 μM, except AG1801 5 μM) was 19.4%, the “Apoptosis (%)” value ([2]; TNF-α −, cycloheximide 50 μg/ml, tyrphostins 20 μM, except AG1801 5 μM) was 8.3% and the “live cells, % of control” value ([3]; TNF 0.05 ng/ml) was 75 % of control. For the same compound, the “live cells, % of control” value ([3]; TNF 0.2 ng/ml) was 49 % of control, the “live cells, % of control” value ([3]; TNF 1.0 ng/ml) was 33 % of control and the “live cells, % of control” value ([3]; TNF None) was 107 % of control. For the same compound, the “% alive mice” value [4] was 80% and the alive/total [4] was 4/5.

For `N#CC(=Cc1ccc([N+](=O)[O-])cc1)C(N)=S` [AG1744], the “nephrotoxicity of cisplatin (serum creatinine level)” value [5] was “markedly reduced the nephrotoxicity of cisplatin”.

`N.N.[Cl][Pt][Cl]` [Cisplatin, cisplatin] was tested, and the mortality [6] was “all the mice in the group receiving cisplatin alone died within ten days”, the histopathology of kidneys ([7]; cisplatin 14 mg/kg alone (FIG. 7B)) was “large proteinaceous plaques in the proximal tubals; also recorded: large proteinaceous plaques in the proximal tubules” and the “histopathology of small intestine” value ([7]; cisplatin 14 mg/kg alone (FIG. 7E)) was “severe necrosis and disintegration of the columnar intestinal epithelial cells; also recorded: severe necrosis and damage”. The “anti-tumor effect (lungs' weight, established lung metastases)” value ([8]; agent by itself: cisplatin 4 mg/kg or AG1714 20 mg/kg i.p., 24 days (FIG. 21A)) was “markedly inhibited the growth”, the “weight of the lungs of tumor bearing mice” value [8] was “reduced the weight of the mice's lungs to a weight similar to that of control non tumor bearing mice” and the “anti-tumor effect (lungs' weight, established lung metastases)” value [9] was “partial anti-tumor effect”. For the same compound, the “weight of the lungs of tumor bearing mice” value ([10]; single agent: cisplatin or AG1801 (FIG. 26)) was “reduced the weight of the lungs of the tumor bearing mice to an extent”, the “anti-tumor effect (tumor volume)” value [11] was “marked anti-tumor effect” and the “anti-tumor effect (lungs' weight, established lung metastases)” value ([12]; agent alone: Cisplatin (4 mg/kg) or AG1714 (20 mg/kg) (FIG. 21C)) was “not effective”.

In the case of `O=P1(N(CCCl)CCCl)NCCCO1` (stereo not drawn) [Cyclophosphamide, cyclophosphamide], the “Nucleated cells in bone marrow (× 10^6)” value [13, 18] is reported as 6.2 × 10^6, the “Spleen” value [13, 18] is reported as 52 mg and the “Thymus” value [13, 18] is reported as 39 mg. The “number of nucleated cells in the bone marrow, spleen and thymus” value ([13]; cyclophosphamide 50 mg/kg alone) was “significant reduction in the number of nucleated cells”.

With `COc1cccc2c1C(=O)c1c(O)c3c(c(O)c1C2=O)C[C@@](O)(C(=O)CO)C[C@@H]3O[C@H]1C[C@H](N)[C@H](O)[C@H](C)O1` [Doxorubicin, doxorubicin] the “mortality of the mice” value ([14]; 10 i.p. doxorubicin injections 5 mg/kg over 21 days, alone) was “high mortality”, the “% mortality” value ([14]; doxorubicin 20 mg/kg i.p. alone, within a week after injection) was 90% and the “Cellular beating (beats/min)” value [15] was 15 ± 1.3 beats/min. The “number of beats per minute relative to control cultures” value [15] was “about 20%”, the “weight of spleens and thymuses” value [16] was “significant reduction in the weight of spleens” and the “Mortality (dead/total)” value ([8]; Table 6A, Doxorubicin (4 mg/kg) alone) was 0/5. The “Lungs' weight (mg + SEM)” value [8, 19] was 170 ± 4 mg, the “Mortality (dead/total)” value [8, 19] was 5/8 and the “Mortality, percent in brackets” value [8, 19] was 62.5%. For the same compound, the “weight of the lungs of tumor bearing mice” value [8] was “reduced the weight of the mice's lungs to a weight similar to that of control non tumor bearing mice”, the “growth of the SK-28 tumor (lungs' weight, metastases)” value ([10]; agent by itself: doxorubicin 4 mg/kg or AG1714 20 mg/kg, 24 days (FIG. 22)) was “markedly suppressed the growth” and the “Mortality (dead/total)” value [12, 20] was 0/4. For the same compound, the “No. of lungs' metastases (+ SD)” value [12, 20] was 7 ± 4, the “Mortality (dead/total)” value [12, 21] was 3/4 and the “Mortality, percent in brackets” value [12, 21] was 75%. The “No. of lungs' metastases (+ SD)” value [12, 21] was 1, the “Lungs' weight (mg + SEM)” value [12, 22] was 306 ± 12 mg and the “Mortality (dead/total)” value [12, 22] was 0/6. The “Mortality (dead/total)” value [12, 23] was 7/8, the “Mortality, percent in brackets” value [12, 23] was 88% and the “reduction in CFU” value [17] was 55%.

With TNF-α the “Cell cycle % G1” value ([2]; TNF-α (0.2 ng/ml) alone) was 85.8%, the “Cell cycle % G2 + M” value ([2]; TNF-α (0.2 ng/ml) alone) was 6.6% and the “Cell cycle % S” value ([2]; TNF-α (0.2 ng/ml) alone) was 7.6%. The Apoptosis (%) ([2]; Table 9, TNF-α (0.2 ng/ml) alone) was 28.7%.
